What was measured:
AAV isolate from lysate = test: Transduction of NEM-treated AAV from producer cell lysate; assay type: cell-based, AAV2
HeLa cells [1] = test: N-ethylmaleimide induced cell vesicle production time course; assay type: cell-based, human; conditions: 2 mM NEM in 1×DPBS; 1 h, 3 h, 5 h, 8 h, 24 h
Experimental: Protocol for N-ethylmaleimide induced cell vesicle production: HeLa cells were plated at 70% confluency (6×10^6 cells/100 mm cell culture plate) and incubated for 4 h at 37° C. and 5% CO2. Media was removed and cells were washed three times with 10 mL of 1×DPBS. […] Cells were imaged using a standard inverted light microscope and DPBS solution containing ICVs were collected, isolated, and analyzed by dynamic light scattering (DLS) for size.
Protocol for nano- and microscale induce cell vesicle isolation: Cells and debris were removed by centrifugation at 1200 rpm for 5.5 min, repeated three times, each time collecting supernatant into a clean tube. Then, mICVs were isolated from the supernatant by centrifugation at 16,000×g for 10 min. After the first spin, supernatant was collected for nICV isolation while micro ICV pellets were washed with 1×DPBS. This was repeated two additional times, discarding supernatant and washing the mICV pellet with 1×DPBS. nICVs were isolated using 100 kDa Amicon® ultrafiltration at 3300×g for 15 min, repeated three times with 1×DPBS washes. Final mICVs and nICVs collected were suspended in 100 uL 1×DPBS and then characterized.
(§1) Characterization of mICVs and nICVs: mICVs and nICVs were imaged using a bright field microscope and inverted light microscope. The sizing of produced ICVs were measured by using dynamic light scattering (DLS). […]

stock AAV = test: Transduction of NEM-treated stock AAV; assay type: cell-based, AAV2
E.G7-OVA cells = test: Tumor challenge study after vaccination; assay type: in vivo, C57BL/6 mice; conditions: for tumor growth: s.c. vaccination plus booster, 300,000 E.G7-OVA cells s.c.; for survival: tumor challenge
Experimental: Tumor challenge study. 12 wk.-old C57BL/6 mice (Charles River Laboratories, Wilmington, MA) were vaccinated by s.c. injection with DPBS, OVA protein, SIINFEKL peptide, SIINFEKL-presenting BDMCs, or SIINFEKL-presenting BMDC mICVs. With the exception of the control (DPBS) group, each group received vaccinations that were equivalent to a dosage of 100 μL of 50 μM SIINFEKL as quantified by CPRG assay. Vaccinations were given twice 14 days apart. 7 days after the second injection, mice were injected s.c. with 300,000 E.G7-OVA cells in the right flank. Tumor growth was monitored by measuring the tumor size with calipers every 48 h.
Mice received a single vaccination followed by a booster vaccination two weeks later). Seven days after completion of a vaccination schedule. mice were challenged with E.G7-OVA cells and tumor growth was assessed over four weeks. FIG. 72 provides images from Day 30 of the tumor challenge with mice by vaccine category. […] The foregoing tumor challenge result indicates promise for use of antigenic ICVs as effective cancer vaccines.

HeLa cells [2] = test: AlPcS2A photoinitiated induced cell vesicle production (670 nm laser); assay type: cell-based, human; conditions: 1 ug/mL for 24 h then light, vs light alone
Experimental: Protocol for Photoinitiated induced cell vesicle production: HeLa cells were plated at 70% confluency (6×10^6 cells/100 mm cell culture plate) and incubated for 4 h at 37° C. and 5% CO2. Cells were then imaged to confirm adherence to the plate and, in the dark, media was changed to media containing 1 ug/mL of the photosensitizer aluminum disulfonated phthalocyanine (AlPcS2A) (10 mL of photosensitizer media per 100 mm each plate). Plates were wrapped in tinfoil and allowed to incubate for 24 h at 37° C. and 5% CO2. In the dark, the photosensitive media was removed and cells were washed three times with 10 mL of 1×DPBS. Then, 6 mL of 1×DPBS was added to each 100 mm plate and the plates were subjected to a 670 nm laser for varying time doses (10 min, 5 min, 2.5 min, 1.25 min). Cells were imaged using a standard inverted light microscope, and the DPBS solution containing ICVs was collected. 6 mL of fresh 1×DPBS was added to each 100 mm plate and the plates were incubated at 37° C. and 5% CO2 for 18 h to investigate ICV formation effects over time. Cells were imaged using a standard inverted light microscope and the DPBS solution containing ICVs was collected. […]
as §1

**Q.** What does the source list for `CCN1C(=O)C=CC1=O` [NEM, N-ethylmaleimide]?
**A.** transduction of AAV isolate from lysate (AAV isolate from lysate; NEM exposure 8 hours vs 0-minute timepoint): about half the transduction; transduction of AAV isolate from lysate (AAV isolate from lysate; NEM exposure up to 4 hours): only a minimal drop in transduction; formation of nICVs (HeLa cells [1]): induced the formation of nICVs at each time point; stock AAV transduction efficiency (stock AAV; NEM incubation 10 minutes): reducing the transduction efficiency; stock AAV transduction (stock AAV; NEM incubation 2 hours): almost no transduction

**Q.** With OVA: OVA protein vaccination control as the compound, how does the tumor growth (E.G7-OVA cells) read?
**A.** Its tumor growth is “rapidly developed tumors”.

**Q.** And the survival (E.G7-OVA cells)?
**A.** Its survival is “died prior to day 35”.

**Q.** For “SIINFEKL [antigen peptide vaccination control]”, which tumor growth (E.G7-OVA cells) is on record?
**A.** Its tumor growth is “rapidly developed tumors”.

**Q.** And the survival (E.G7-OVA cells)?
**A.** The survival was “died prior to day 35”.

**Q.** Which “yield of nICVs and mICVs” value (HeLa cells [2]) does the source give for “aluminum disulfonated phthalocyanine [AlPcS2A]” here?
**A.** Its value is “greatly increased the yield of nICVs and mICVs”.

From US12296023B2, “Chemically and photochemically initiated cell membrane blebbing to induce cell vesicle production, modifications thereof, and uses thereof” (The Regents of the University of California, priority 2018, dated 2025)
